Where a SMILES comes first, the peptide text is derived from it. Bridges are numbered along the chain shown (N, C = ends). [ ]: non-standard residue; d: D form. hArg = N=C(N)NCCCC[C@H](N)C(=O)O; Mpa = O=C(O)CCS
Key:
[1] = adults admitted to the ICU already receiving aspirin, clopidogrel or a combination; cited from earlier work
granzyme B = assay: Flow cytometry of intracellular granzyme B in CD61+ platelets; assay type: cell-based, mouse; conditions: additional platelet activation with TNFα; data not shown
From the text: To determine if granzyme B mRNA up-regulation translates to increased granzyme B protein expression, additional citrated whole blood was collected from septic and control mice. It was fixed with 1% paraformaldehyde, permeabilized, and intracellularly stained with anti-granzyme B (clone 16G6; eBioscience, San Diego, Calif., USA) using appropriate isotype and negative (unlabeled) controls. Flow cytometry data were generated on a FACSCalibur™ System (BD Biosciences, San Jose, Calif., USA), gating on CD61^+ (clone 2C9.G2; BD) platelets, and analyzed using FlowJo 7.2 (Tree Star, Inc., Ashland, Oreg., USA).

CD4+ splenocytes = assay: Co-incubation of CD4+ splenocytes with platelets with or without recombinant TNFα pre-treatment; apoptosis by TiterTACS; assay type: cell-based, mouse
Experimental: CD4^+ splenocytes from healthy control mice were co-incubated with platelets isolated from control or septic mice for 90 minutes at 37° C. and 5% CO2 with or without platelet pre-treatment with 10 ng/mL of recombinant TNFα (Sigma-Aldrich) for 90 minutes. Splenocyte apoptosis was evaluated by TiterTACS™ (Trevigen, Gaithersburg, Md., USA), a quantitative colorimetric assay for in situ detection of DNA fragmentation. All samples were run in triplicate according to the manufacturer's protocol with data normalized to negative and nuclease-induced positive controls.
Our finding of granzyme B in platelets from septic mice and humans caused us to hypothesize that platelets could be lymphotoxic in this scenario. To study this question, platelets from mice 18 hours status post CLP were co-incubated with CD4^+ splenocytes isolated from healthy control mice. Platelets from septic wild-type (i.e. C57BL6) mice induced marked splenocyte apoptosis compared to platelets from sham wild-type mice (rate of apoptosis=26.0±3.4 versus 3.9±3.4%; p=0.007). (FIG. 4) This co-incubation experiment was repeated with platelets from septic granzyme B null (−/−) mice (i.e. B6.129S2-Gzmb^tmlLey). In this case, there was a complete lack of induced splenocyte apoptosis by septic platelets. […] (FIG. 4)

[2] = target: plasma membrane glycoprotein GPIIb/IIIa (mouse) (UniProt Q9QUM0); assay: cell-based or functional assay
splenocytes = assay: Ex vivo septic platelet-splenocyte co-incubation with anti-aggregatory platelet pretreatment; apoptosis by flow cytometry (TUNEL, pan-caspase FLICA); assay type: cell-based, mouse
Experimental: Non-septic wild type spleens were firmly pressed between two glass slides to express splenocytes, which were isolated by centrifugation through Ficoll-Paque™ Plus (GE Healthcare Bio-Sciences Corporation, Piscataway, N.J.). Splenocyte concentrations were measured and standardized using a manual hemocytometer and co-incubated ex vivo with platelets (from septic or healthy control mice) for 90 minutes at 37° C. and 5% CO2 in complete Dulbecco's Modified Eagle Medium (DMEM) (Invitrogen/GIBCO, Carlsbad, Calif.). For some experiments, a 0.4 μm semi-permeable membrane (Corning Inc., Corning, N.Y.) was used to physically separate platelets from splenocytes.
Splenocyte apoptosis in each experimental condition was quantified in cell suspensions by flow cytometry on a FACSCalibur™ (Becton, Dickinson and Company, San Jose, Calif.) and in tissue sections by immunohistochemistry on a Nikon Eclipse E 800 Microscope (Nikon Instruments Inc., Melville, N.Y.) with a Spot RT Slider Camera (Diagnostic Instruments Inc., Sterling Heights, Mich.).
Splenocyte suspension apoptosis was identified using FlowTACS™ (Trevigen, Gaithersburg, Md.), a TUNEL-based assay for detection of DNA fragmentation. Positive controls were generated with staurosporine (Sigma Life Sciences, St Louis, Mo.). CD4+ fractions were identified by fluorophore-labeled antibody staining (clone L3T4; eBiosciences, San Diego, Calif.). We used a Sulforhodamine FLICA-Apoptosis Detection Kit Pan-Caspase Assay (Immunochemistry Technologies, Bloomington, Minn.) to measure activated caspases in apoptotic cells. Immunohistochemistry was performed on frozen heart, lung, kidney, spleen, and liver sections (4-7 μm) stained with the TUNEL-based TACK® 2 TdT In Situ Apoptosis Detection Kit (Trevigen, Gaithersburg, Md., USA) according to the manufacturer's instructions.

other integrins = conditions: binds specifically to GPIIb/IIIa; cited from earlier work
[3] = eptifibatide-exposed (4 μg/mL, 15 minutes) septic wild type platelets with healthy splenocytes vs non-exposed septic platelets, mean±SEM
[4] = platelets pre-treated, compared with untreated septic platelets

Sequence of UniProt Q9QUM0 (Q9QUM0 32-1033, chain 1 of 2): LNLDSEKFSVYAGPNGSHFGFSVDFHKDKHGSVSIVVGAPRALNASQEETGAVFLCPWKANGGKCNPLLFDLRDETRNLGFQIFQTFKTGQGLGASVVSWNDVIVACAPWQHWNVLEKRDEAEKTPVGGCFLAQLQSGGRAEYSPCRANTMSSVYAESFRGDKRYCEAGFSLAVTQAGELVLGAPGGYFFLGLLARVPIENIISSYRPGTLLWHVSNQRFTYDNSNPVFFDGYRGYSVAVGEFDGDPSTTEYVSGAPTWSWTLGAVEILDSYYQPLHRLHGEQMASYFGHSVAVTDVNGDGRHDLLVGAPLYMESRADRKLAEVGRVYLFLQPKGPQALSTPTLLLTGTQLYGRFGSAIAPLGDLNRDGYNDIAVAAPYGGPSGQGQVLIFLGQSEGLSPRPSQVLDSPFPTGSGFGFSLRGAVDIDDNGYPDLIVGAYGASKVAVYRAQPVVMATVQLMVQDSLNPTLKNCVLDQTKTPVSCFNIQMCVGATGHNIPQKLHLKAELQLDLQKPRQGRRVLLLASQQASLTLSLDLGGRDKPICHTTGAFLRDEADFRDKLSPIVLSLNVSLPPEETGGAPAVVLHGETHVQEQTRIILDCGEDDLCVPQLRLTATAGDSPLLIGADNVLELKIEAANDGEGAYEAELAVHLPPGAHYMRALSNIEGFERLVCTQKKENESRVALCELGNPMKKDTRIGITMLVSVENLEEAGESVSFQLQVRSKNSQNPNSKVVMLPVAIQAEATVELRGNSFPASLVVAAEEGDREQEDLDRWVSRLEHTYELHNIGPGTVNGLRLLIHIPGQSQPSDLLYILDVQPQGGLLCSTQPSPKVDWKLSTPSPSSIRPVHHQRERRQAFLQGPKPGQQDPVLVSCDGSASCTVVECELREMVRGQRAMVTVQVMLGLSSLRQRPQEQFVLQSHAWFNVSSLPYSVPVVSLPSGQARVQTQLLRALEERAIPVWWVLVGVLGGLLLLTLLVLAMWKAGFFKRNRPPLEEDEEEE
Sequence of UniProt Q9QUM0 (O54890 26-787, chain 2 of 2, further chain): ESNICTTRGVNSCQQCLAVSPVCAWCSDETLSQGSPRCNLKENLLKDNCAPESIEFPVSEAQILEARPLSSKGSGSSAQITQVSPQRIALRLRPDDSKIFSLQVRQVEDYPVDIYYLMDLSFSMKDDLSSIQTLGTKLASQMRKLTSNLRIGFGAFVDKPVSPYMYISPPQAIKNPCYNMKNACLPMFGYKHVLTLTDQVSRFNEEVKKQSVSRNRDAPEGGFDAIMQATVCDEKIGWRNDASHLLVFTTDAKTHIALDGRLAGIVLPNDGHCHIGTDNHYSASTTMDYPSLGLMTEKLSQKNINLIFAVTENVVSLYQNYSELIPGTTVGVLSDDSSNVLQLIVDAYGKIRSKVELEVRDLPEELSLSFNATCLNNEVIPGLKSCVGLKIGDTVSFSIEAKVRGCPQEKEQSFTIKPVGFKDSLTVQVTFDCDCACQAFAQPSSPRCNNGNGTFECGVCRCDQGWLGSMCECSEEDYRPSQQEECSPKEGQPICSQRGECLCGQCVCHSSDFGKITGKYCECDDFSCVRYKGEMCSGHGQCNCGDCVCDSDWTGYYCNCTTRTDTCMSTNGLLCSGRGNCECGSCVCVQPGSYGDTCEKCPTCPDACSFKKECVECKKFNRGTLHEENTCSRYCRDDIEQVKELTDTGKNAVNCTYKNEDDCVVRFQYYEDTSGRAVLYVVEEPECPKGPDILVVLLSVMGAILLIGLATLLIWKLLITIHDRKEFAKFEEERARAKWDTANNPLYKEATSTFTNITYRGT

Compound: CC(=O)Oc1ccccc1C(=O)O [aspirin]
- levels of MODS [1]: decreased levels of MODS
- mortality [1]: decreased mortality

Compound: TNFα
- intracellular granzyme B in platelets, result in words (granzyme B): did not alter
- lymphotoxic capacity of platelets, result in words (CD4+ splenocytes; further platelet activation with recombinant TNFα): did not alter
- rate of apoptosis (lymphotoxicity) of CD4+ splenocytes (CD4+ splenocytes; wild-type platelets further activated by TNFα (10 ng/mL, 90 minutes), p=0.88 vs non-activated control platelets): 4.5±1.3%

Compound: eptifibatide (peptide)
- reduction of septic platelet-induced apoptosis in the CD4+ splenocyte fraction, TUNEL+ and pan-caspase+ by flow cytometry [2]: 85 % reduction
- reduction of septic platelet-induced splenocyte apoptosis (overall), TUNEL+ and pan-caspase+ by flow cytometry [2]: 66.5 % reduction

Compound: COC(=O)[C@H](c1ccccc1Cl)N1CCc2sccc2C1 [clopidogrel]
- levels of MODS [1]: decreased levels of MODS
- mortality [1]: decreased mortality

Compound: N=C(N)NCCCC[C@@H]1NC(=O)CCSSC[C@@H](C(N)=O)NC(=O)[C@@H]2CCCN2C(=O)[C@H](Cc2c[nH]c3ccccc23)NC(=O)[C@H](CC(=O)O)NC(=O)CNC1=O [eptifibatide] ([Mpa][hArg]GDWPC-NH2; disulfide 1-7)
- reduction of splenocyte apoptosis in the CD4+ fraction (splenocytes; [3]): 85±20.7 % reduction
- reduction of splenocyte apoptosis overall (splenocytes; [3]): 66.5±10.6 % reduction
- septic platelet-induced CD4+ splenocyte apoptosis (TUNEL+ and pan-Caspase+), result in words (splenocytes; [4]): significant reduction
- septic platelet-induced splenocyte apoptosis overall (TUNEL+ and pan-Caspase+), result in words (splenocytes; [4]): significant reduction
- affinity for other integrins (other integrins): low affinity
